Experimental data: article PMC9917184, “Synthesis and Biological Evaluation of Potential Oncoimmunomodulator Agents” (International Journal of Molecular Sciences, 2023)
Where two headings read alike, the source gives them in different places.

Tests used:
membrane VEGFR-2 = test: Membrane VEGFR-2 relative quantification by flow cytometry in cancer cells co-cultured with Jurkat T cells; assay type: cell-based, human; details: 100 μM, 24 h, relative to non-treated co-cultures
Protocol: (§1) We determined by flow cytometry the effect of these compounds on the expression of membrane PD-L1 in cancer cells when they were co-cultured with immune cells. Thus, interferon γ-stimulated cancer cells were treated for 24 h with the compounds at 100 μM in presence of Jurkat T cells. Then, cells were fixed and treated with anti-PD-L1 conjugated to AlexaFluor®647. We took advantage of the versatility of flow cytometry to simultaneously measure the expression of membrane VEGFR-2 by using anti-VEGFR-2 conjugated to fluorescein.
(§2) To study the effect of the compounds on every biological target in co-cultured cancer cell lines, the compounds were incubated for 24h as described before.
(§3) To detect membrane PD-L1 and VEGFR-2, after the cell treatments, they were collected, fixed with 4% in PBS paraformaldehyde, and stained with FITC Mouse monoclonal Anti-Human VEGFR-2 (ab184903) and Alexa Fluor® 647 Rabbit monoclonal Anti-PD-L1 (ab215251).

c-Myc = test: Total c-Myc relative quantification by flow cytometry in cancer cell lines; assay type: cell-based, human; details: 24 h; for c-Myc inhibition rate: A-549, 100 μM
Protocol: (§4) The effect of these triazole derivates on c-Myc and PD-L1 was measured in three different cancer cell lines (HT-29, MCF-7, A-549) by flow cytometry. Thus, cells were incubated for 24 h with the corresponding compound at a concentration of 100 μM. Dimethyl sulfoxide (DMSO)-treated cells were used as the negative control, and a PD-L1 inhibitor, BMS-8 [29, 31], was used as a reference control. After permeabilization and fixation, cells were treated with anti-PD-L1 conjugated to AlexaFluor®647 and anti-c-Myc conjugated to fluorescein to determine the amount of both targets related to the negative control. Table 1 show the results in terms of the percentage of the detected target in relation to the negative control. This assay was carried out on cancer cell lines HT-29, MCF-7, and A-549.
(§5) To study the effect of the compounds on every biological target in cancer cell lines, the compounds were used at a 100 µM dose.
(§6) For the assay, 10^5 cells per well were incubated for 24 h with the corresponding dose of the tested compound in a total volume of 500 μL of their growth media.
(§7) To detect total PD-L1 and c-Myc, after the cell treatments, they were collected and fixed with 4% in PBS paraformaldehyde. After fixation, a treatment with 0,5% in PBS Triton™ X-100 was performed, and finally, cells were stained with FITC Mouse monoclonal Anti-c-Myc (ab223913) and Alexa Fluor® 647 Rabbit monoclonal Anti-PD-L1 (ab215251).

membrane PD-L1 = target: T1, membrane PD-L1 (Homo sapiens, UniProt Q9NZQ7); test: Membrane PD-L1 relative quantification by flow cytometry in cancer cells co-cultured with Jurkat T cells; assay type: cell-based; details: Jurkat, 24 h; for remaining activity at 100 µM: relative to non-treated co-cultures, read-out: % PDL1 (membrane); for inhibition at 100 µM: HT-29 co-cultured with Jurkat T cells, read-out: membrane PD-L1 inhibition rate
T1 construct: Alexa Fluor® 647 Rabbit monoclonal Anti-PD-L1 (ab215251); endogenous in cells; host or cells: HT-29, MCF-7, A-549 (A17: MCF-7 only; A14: IFN-gamma-stimulated cancer cells co-cultured with Jurkat T cells)
Protocol: as §1, §2, §3

PD-L1 = PD-L1 (Homo sapiens, UniProt Q9NZQ7); test: Total PD-L1 relative quantification by flow cytometry in cancer cell lines; assay type: cell-based; parameters: Alexa Fluor® 647 Rabbit monoclonal Anti-PD-L1 (ab215251); endogenous in cells; host or cells: HT-29; details: 24 h, total PD-L1 relative to negative control (DMSO)
Protocol: as §4, §5, §6, §7

Jurkat T cells = test: Jurkat T cell viability in co-culture with cancer cells (flow cytometry count); assay type: cell-based; details: Homo sapiens, 24 h, read-out: percentage of living Jurkat cells relative to non-treated co-cultures
Protocol: (§8) The effect of the synthesized compounds on tumor cell proliferation in the presence of PD-1-expressing Jurkat T cells was also studied. This assay was carried out, as in the previous experiments, in the HT29, MCF7, and A549 cell lines (see Table 4). Interferon γ-stimulated cancer cells were treated for 24 h with the compounds at 100 μM in presence of Jurkat T cells. Then, cells were counted using flow cytometry. The percentage of living cells relative to non-treated co-cultures (control) was established for both cancer and immune cells in every co-culture.
(§9) To study the effect of the compounds on the cell viability in co-culture with Jurkat T cells or THP-1 cells, 10^5 or 2 × 10^5 of the corresponding cancer cells line per well were seeded and incubated for 24 h, then the medium was changed by one cell culture medium supplemented with IFN-γ (10 ng/mL; human, Invitrogen®) and containing 5 × 10^5 or 10^5 Jurkat T cells or THP-1, respectively, per well and 100 µM of the corresponding compound or DMSO for the […] control. After 24 h/48 h of incubation, supernatants were collected to determine Jurkat T or THP-1 living cells, and on the other hand, corresponding cancer cells were collected with trypsin. Both types of suspension cells were fixed with 4% in PBS paraformaldehyde and counted by flow cytometry.

A-549 = A-549 cell viability in co-culture with Jurkat T cells (flow cytometry count); assay type: cell-based, human; details: 24 h; for viability at 100 µM: Homo sapiens, A549, A-549/Jurkat T co-culture, IFN-γ stimulated, read-out: percentage of living A-549 cells relative to non-treated co-cultures; for inhibition rate of A-549 cell viability: co-cultured with Jurkat T cells, 100 μM
Protocol: as §8, §9

MCF-7 = MCF-7 cell viability in co-culture with Jurkat T cells (flow cytometry count); assay type: cell-based, human; details: 24 h; for viability at 100 µM: Homo sapiens, MCF7, MCF-7/Jurkat T co-culture, IFN-γ stimulated, read-out: percentage of living MCF-7 cells relative to non-treated co-cultures; for inhibition rate of MCF-7 cell viability: co-cultured with Jurkat T cells, 100 μM
Protocol: as §8, §9

HT-29 = HT-29 cell viability in co-culture with Jurkat T cells (flow cytometry count); assay type: cell-based, human; details: 24 h; for viability at 100 µM: Homo sapiens, HT-29/Jurkat T co-culture, IFN-γ stimulated, read-out: percentage of living HT-29 cells relative to non-treated co-cultures
Protocol: as §8, §9

[1] = A549 co-cultured with Jurkat T cells
[2] = HT29 co-cultured with Jurkat T cells
[3] = MCF7 co-cultured with Jurkat T cells
[4] = A-549, 100 µM, relative to negative control (DMSO)
[5] = HT-29, 100 µM, detected target relative to negative control (DMSO)
[6] = MCF-7, 100 µM, relative to negative control (DMSO)

PD-L1, sequence (Q9NZQ7 19-290): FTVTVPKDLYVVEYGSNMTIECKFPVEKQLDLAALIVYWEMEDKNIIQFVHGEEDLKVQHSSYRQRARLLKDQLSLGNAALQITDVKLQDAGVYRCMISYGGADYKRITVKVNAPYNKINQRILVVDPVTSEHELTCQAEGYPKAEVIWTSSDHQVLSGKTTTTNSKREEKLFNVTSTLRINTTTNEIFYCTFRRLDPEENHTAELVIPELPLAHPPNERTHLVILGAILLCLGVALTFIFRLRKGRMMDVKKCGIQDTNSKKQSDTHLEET
T1 sequence (Q9NZQ7 19-290): as above

SMILES | %VEGFR2 (membrane) (membrane VEGFR-2; [1]) | %VEGFR2 (membrane) (membrane VEGFR-2; [2]) | %VEGFR2 (membrane) (membrane VEGFR-2; [3]) | % c-Myc (c-Myc; [4]) | % c-Myc (c-Myc; [5]) | % c-Myc (c-Myc; [6]) | remaining activity at 100 µM (membrane PD-L1; [1]) | remaining activity at 100 µM (membrane PD-L1; [2]) | remaining activity at 100 µM (membrane PD-L1; [3]) | remaining activity at 100 µM (PD-L1; A549, A-549, 100 µM) | remaining activity at 100 µM (PD-L1; HT-29, 100 µM) | remaining activity at 100 µM (PD-L1; MCF7, MCF-7, 100 µM) | viability at 100 µM (Jurkat T cells; A-549/Jurkat T co-culture) | viability at 100 µM (Jurkat T cells; HT-29/Jurkat T co-culture) | viability at 100 µM (Jurkat T cells; MCF-7/Jurkat T co-culture) | viability at 100 µM (A-549) | inhibition rate of A-549 cell viability (A-549) | viability at 100 µM (MCF-7) | viability at 100 µM (HT-29) | inhibition at 100 µM (membrane PD-L1) | other results
COc1ccc(-c2cn(CCc3ccc(CCO)cc3)nn2)cc1 [Compound 10, 2-(4-(2-(4-(4-methoxyphenyl)-1H-1,2,3-triazol-1-yl)ethyl)phenyl)ethan-1-ol] | 107 ± 1% | 94 ± 6% | 105 ± 3% | 126 ± 2% | 83 ± 8% | 91 ± 6% | 84 ± 6% | 126 ± 7% | 48 ± 7% | 62 ± 14% | 82 ± 2% | 114 ± 9% | 100 ± 4% | 120 ± 23% | 148 ± 20% | 103 ± 4% | no activity | 94 ± 2% | 145 ± 16% | – | –
COc1ccccc1-c1cn(CCc2ccc(CCO)cc2)nn1 [Compound 14, 2-(4-(2-(4-(2-methoxyphenyl)-1H-1,2,3-triazol-1-yl)ethyl)phenyl)ethan-1-ol] | 106 ± 1% | 97 ± 6% | 91 ± 6% | 85 ± 10% | 67 ± 4% | 71 ± 5% | 85 ± 3% | 61 ± 3% | 80 ± 5% | 54 ± 7% | 138 ± 2% | 71% | 109 ± 20% | 106 ± 9% | 127 ± 6% | 78 ± 9% | around 30% | 47 ± 1% | 67 ± 10% | 40 to 50% | inhibition rate of MCF-7 cell viability (MCF-7): around 60%
COc1ccc(-c2cn(CCc3ccc(CCOC(c4ccccc4)(c4ccc(OC)cc4)c4ccc(OC)cc4)cc3)nn2)cc1 [Compound 9, 1-(4-(2-(bis(4-methoxyphenyl)(phenyl)methoxy)ethyl)phenethyl)-4-(4-methoxyphenyl)-1H-1,2,3-triazole] | 92 ± 3% | 76 ± 13% | 76 ± 10% | 61 ± 3% | 71 ± 10% | 88 ± 4% | 82 ± 2% | 63 ± 11% | 40 ± 5% | 92 ± 21% | 57 ± 8% | 89 ± 5% | 462 ± 99% | 56 ± 18% | 84 ± 17% | 106 ± 1% | no activity | 69 ± 9% | 51 ± 17% | 40 to 50% | c-Myc inhibition rate (c-Myc): 40%
COc1ccc(C(OCCc2ccc(CCn3cc(-c4ccccc4OC)nn3)cc2)(c2ccccc2)c2ccc(OC)cc2)cc1 [Compound 13, 1-(4-(2-(bis(4-methoxyphenyl)(phenyl)methoxy)ethyl)phenethyl)-4-(2-methoxyphenyl)-1H-1,2,3-triazole] | 80 ± 8% | 89 ± 2% | 120 ± 8% | 51 ± 2% | 68 ± 3% | 77 ± 5% | 83 ± 6% | 57 ± 12% | 33 ± 4% | 120 ± 5% | 102 ± 1% | 87 ± 6% | 90 ± 2% | 110 ± 9% | 79 ± 5% | 103 ± 4% | – | 43 ± 1% | 153 ± 15% | 40 to 50% | c-Myc inhibition rate (c-Myc): 50%; inhibition rate of MCF-7 cell viability (MCF-7): around 60%
OCCc1ccc(CCn2cc(-c3ccccc3Br)nn2)cc1 [Compound 8, 2-(4-(2-(4-(2-bromophenyl)-1H-1,2,3-triazol-1-yl)ethyl)phenyl)ethan-1-ol] | 104 ± 5% | 97 ± 4% | 108 ± 6% | 48 ± 7% | 88 ± 2% | 92 ± 6% | 84 ± 8% | 58 ± 6% | 46 ± 9% | 44 ± 8% | 115 ± 5% | 81 ± 1% | 88 ± 34% | 95 ± 5% | 164 ± 9% | 72 ± 9% | around 30% | 49 ± 10% | 97 ± 10% | 40 to 50% | –
COc1cccc(-c2cn(CCc3ccc(CCO)cc3)nn2)c1 [Compound 12, 2-(4-(2-(4-(3-methoxyphenyl)-1H-1,2,3-triazol-1-yl)ethyl)phenyl)ethan-1-ol] | 99 ± 6% | 113 ± 4% | 103 ± 8% | 113 ± 9% | 84 ± 2% | 81 ± 4% | 77 ± 3% | 88 ± 5% | 41 ± 2% | 67 ± 8% | 157 ± 6% | 88 ± 1% | 83 ± 6% | 104 ± 5% | 123 ± 11% | 86 ± 2% | around 30% | 78 ± 4% | 60 ± 3% | – | inhibition rate of HT-29 cell viability (HT-29; co-cultured with Jurkat T cells, 100 μM): around 40%
